Experimental data reported in patent US20160193206A1, “BET-PROTEIN-INHIBITING DIHYDROPYRIDOPYRAZINONES” (BAYER PHARMA AKTIENGESELLSCHAFT, priority 2012, published 2016).

Legend:
[1] = biological target: T1, BRD4 bromo domain 1 [BRD4(1)] (Homo sapiens, UniProt O60885); experiment: BRD4(1)/acetylated peptide H4 binding assay (TR-FRET); conditions: inhibition of interaction between His6-tagged BRD4(1) (amino acids 67-152) and acetylated histone H4 peptide
T1 construct: N-terminally His6-tagged BRD4(1) (amino acids 67-152); made in house; host or cells: E. coli
How it was run: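 TR-FRET measured displacement of a biotinylated tetra-acetylated H4 peptide from His6-BRD4(1) (aa 67-152, E. coli-expressed, typically 10 nM) in HEPES pH 7.5 buffer. Compounds were tested at 11 concentrations (0.1 nM–20 μM), with 10 min preincubation, then 1 h at 22 °C and ≥3 h at 4 °C. The 665/620 nm ratio gave IC50 by 4-parameter fit.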

[2] = biological target: T2, BRD4 bromo domain 2 [BRD4(2)] (Homo sapiens, UniProt O60885); experiment: BRD4(2)/acetylated peptide H4 binding assay (TR-FRET); conditions: inhibition of interaction between His6-tagged BRD4(2) (amino acids 357-445) and acetylated histone H4 peptide
T2 construct: N-terminally His6-tagged BRD4(2) (amino acids 357-445); made in house; host or cells: E. coli
How it was run: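 TR-FRET displacement of biotinylated tetra-acetylated H4 peptide from His6-BRD4(2) (aa 357-445, E. coli-expressed), 100 nM final, in HEPES pH 7.5 buffer; 11 compound concentrations 0.1 nM-20 μM, 10 min preincubation, then 1 h 22 °C plus ≥3 h 4 °C. 665/620 ratio read; IC50 by 4-parameter fit.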

MOLM-13 cell line = experiment: MOLM-13 cell proliferation assay (alamarBlue); assay type: cell-based; conditions: Homo sapiens, inhibition of proliferation of MOLM-13 cells (acute myeloid leukaemia), 96 hours incubation
How it was run: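 MOLM-13 (human AML) cells were treated with compound dilutions for 96 h at 37 °C after overnight plating, and viability was read by alamarBlue fluorescence (ex 530/em 590 nm). Pre-treatment readings were subtracted from end-point readings, and IC50 was calculated relative to buffer-only controls.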

| IC50 [1] [nM] | IC50 [2] [nM] | IC50 (MOLM-13 cell line) [nM] | SMILES |
| --- | --- | --- | --- |
| 139 | 156 | 366 | C[C@@H]1C(=O)N(C)c2ccc(Nc3ccc(C(=O)N[C@H]4CC[C@H](N5CCN(CC6CC6)CC5)CC4)cc3)nc2N1C1CCOCC1 [Example 57, N-{trans-4-[4-(Cyclopropylmethyl)piper-azin-1-yl]cyclohexyl}-4-{[(3R)-1,3-dimethyl-2-oxo-4-(tetrahydro-2H-pyran-4-yl)-1,2,3,4-tetrahydropyrido[2,3-b]pyrazin-6-yl]amino}benzamide] |
| 103 | 167 | 583 | C[C@@H]1C(=O)N(C)c2ccc(Nc3ccc(C(=O)NCCN(C)C)cc3)nc2N1C1CCOCC1 [Example 48, N-[2-(Dimethylamino)ethyl]-4-{[(3R)-1,3-dimethyl-2-oxo-4-(tetrahydro-2H-pyran-4-yl)-1,2,3,4-tetrahydropyrido[2,3-b]pyrazin-6-yl]amino}benzamide] |
| 137 | 138 | 170 | COc1cc(C(=O)N2CCN(C(C)C)CC2)ccc1Nc1ccc2c(n1)N(Cc1ccccc1)[C@H](C)C(=O)N2C [Example 80, (3R)-4-Benzyl-6-[(2-methoxy-4-{[4-(propan-2-yl)piperazin-1-yl]carbonyl}phenyl)amino]-1,3-dimethyl-3,4-dihydro pyrido[2,3-b]pyrazin-2(1H)-one] |
| 138 | 219 | 507 | C[C@@H]1C(=O)N(C)c2ccc(Nc3ccc(C(=O)NCCN4CCN(C)CC4)cc3)nc2N1C1CCOCC1 [Example 51, 4-{[(3R)-1,3-Dimethyl-2-oxo-4-(tetrahydro-2H-pyran-4-yl)-1,2,3,4-tetrahydropyrido[2,3-b]pyrazin-6-yl]amino}-N-[2-(4-methylpiperazin-1-yl)ethyl]benzamide] |
| 347 | 306 | 859 | Cc1cc(C(=O)N[C@H]2CC[C@H](N3CCN(CC4CC4)CC3)CC2)ccc1Nc1ccc2c(n1)N(C1CCOCC1)[C@H](C)C(=O)N2C [Example 37, N-{trans-4-[4-(Cyclopropylmethyl)piperazin-1-yl]cyclohexyl}-4-{[(3R)-1,3-dimethyl-2-oxo-4-(tetrahydro-2H-pyran-4-yl)-1,2,3,4-tetrahydropyrido[2,3-b]pyrazin-6-yl]amino}-3-methylbenzamide] |
| 260 | 138 | 176 | COc1cc(C(=O)NC2CCN(C)CC2)ccc1Nc1ccc2c(n1)N(C1CCCC1)[C@H](C)C(=O)N2C [Example 1, 4-{[(3R)-4-Cyclopentyl-1,3-dimethyl-2-oxo-1,2,3,4-tetrahydropyrido[2,3-b]pyrazin-6-yl]amino}-3-methoxy-N-(1-methylpiperidin-4-yl)benzamide] |
| 119 | 140 | 293 | C[C@@H]1C(=O)N(C)c2ccc(Nc3ccc(C(=O)NC4CN(C)C4)cc3)nc2N1C1CCCCC1 [Example 30, 4-{[(3R)-4-Cyclohexyl-1,3-dimethyl-2-oxo-1,2,3,4-tetrahydropyrido[2,3-b]pyrazin-6-yl]amino}-N-(1-methylazetidin-3-yl)benzamide] |
| 141 | 83 | 362 | COc1cc(C(=O)N2CC3(CCS3(=O)=O)C2)ccc1Nc1ccc2c(n1)N(C(C)C)[C@H](C)C(=O)N2C [Example 8, (3R)-6-({4-[(1,1-Dioxido-1-thia-6-azaspiro[3.3]hept-6-yl)carbonyl]-2-methoxyphenyl}amino)-4-isopropyl-1,3-dimethyl-3,4-dihydropyrido[2,3-b]pyrazin-2(1H)-one] |
| 77 | 86 | 539 | COc1cc(C(=O)N2CCN(C)CC2)ccc1Nc1ccc2c(n1)N(C1CCOCC1)[C@H](C)C(=O)N2C [Example 45, (3R)-6-({2-Methoxy-4-[(4-methylpiperazin-1-yl)carbonyl]phenyl}amino)-1,3-dimethyl-4-(tetrahydro-2H-pyran-4-yl)-3,4-dihydropyrido[2,3-b]pyrazin-2(1H)-one] |
| 52 | 53 | 203 | C[C@@H]1C(=O)N(C)c2ccc(Nc3ccc(S(=O)(=O)NC4CCN(C)CC4)cc3)nc2N1C1CCOCC1 [Example 22, 4-{[(3R)-1,3-dimethyl-2-oxo-4-(tetrahydro-2H-pyran-4-yl)-1,2,3,4-tetrahydropyrido[2,3-b]pyrazin-6-yl]amino}-N-(1-methylpiperidin-4-yl)benzenesulphonamide] |
| 374 | 234 | 1110 | COc1cc(C(=O)NCCN2CCN(C(=O)OC(C)(C)C)CC2)ccc1Nc1ccc2c(n1)N(C(C)C)[C@H](C)C(=O)N2C [Example 4, 1-tert-Butyl 4-{2-[(4-{[(3R)-1,3-dimethyl-2-oxo-4-(propan-2-yl)-1,2,3,4-tetrahydropyrido[2,3-b]pyrazin-6-yl]amino}-3-methoxybenzoyl)amino]ethyl}piperazinecarboxylate] |
| 120 | 51 | 282 | COc1cc(C(=O)NC2CCC(O)CC2)ccc1Nc1ccc2c(n1)N(Cc1ccccc1)[C@H](C)C(=O)N2C (stereo partly drawn) [Example 79, 4-{[(3R)-4-Benzyl-1,3-dimethyl-2-oxo-1,2,3,4-tetrahydropyrido[2,3-b]pyrazin-6-yl]amino}-N-(4-hydroxycyclohexyl)-3-methoxybenzamide] |
| 55 | 103 | 242 | COc1cc(C(=O)NC2CCN(C(C)=O)CC2)ccc1Nc1ccc2c(n1)N(Cc1ccccc1)[C@H](C)C(=O)N2C [Example 77, N-(1-Acetylpiperidin-4-yl)-4-{[(3R)-4-benzyl-1,3-dimethyl-2-oxo-1,2,3,4-tetrahydropyrido[2,3-b]pyrazin-6-yl]amino}-3-methoxybenzamide] |
| 237 | 51 | 62 | C[C@@H]1C(=O)N(C)c2ccc(Nc3ccc(S(=O)(=O)N[C@H]4CC[C@H](N5CCN(CC6CC6)CC5)CC4)cc3)nc2N1C1CCOCC1 [Example 15, N-{trans-4-[4-(Cyclopropylmethyl)piperazin-1-yl]cyclohexyl}-4-{[(3R)-1,3-dimethyl-2-oxo-4-(tetrahydro-2H-pyran-4-yl)-1,2,3,4-tetrahydropyrido[2,3-b]pyrazin-6-yl]amino}benzenesulphonamide] |
| 46 | 65 | 358 | C[C@@H]1C(=O)N(C)c2ccc(Nc3ccc(S(=O)(=O)NCCN4CCN(C)CC4)cc3)nc2N1C1CCOCC1 [Example 23, 4-{[(3R)-1,3-dimethyl-2-oxo-4-(tetrahydro-2H-pyran-4-yl)-1,2,3,4-tetrahydropyrido[2,3-b]pyrazin-6-yl]amino}-N-[2-(4-methylpiperazin-1-yl)ethyl]benzene-sulponamide] |
